Reference: US11117930B2, “Peptide inhibitors of transcription factor aggregation” (ADRX, INC., priority 2017, dated 2021)
Like-named read-outs stand apart in the source and are kept apart here. Non-standard residues stand in square brackets, D forms with d. Residues, ends and D or L forms follow the SMILES beside them. No end group written: not given here. NMeI = CC[C@H](C)[C@H](NC)C(=O)O

Key:
[1] = biological target: Nat1 (LTIITLE (SEQ ID NO: 225)) (Homo sapiens, UniProt P04637); assay: Thioflavin T aggregation assay (Nat1); assay type: biochemical; conditions: ThT fluorescence, 50 μM Nat1, pH6.0, room temperature, 2 hours
Description: (§1) The peptides of the invention were tested in an in vitro Thiofiavin T aggregation assay [see WO2014/182961]. An increase in Thioflavin T fluorescence is detected over time due to the formation of increasing amounts of amyloid to which the dye can specifically bind. […] For the Nat1 Stock Solution, Nat (LTIITLE (SEQ ID NO: 225), >95% Pure, TFA salt) is dissolved at 8 mM in 25 mM NaOH solution and kept at −80° C. Prior to the assay, it is diluted to 1 mM in H2O. The 2× Reaction Buffer is prepared with 200 mM Sodium Phosphate, pH6.0, 500 mM Sodium Chloride and 200 μM Thioflavin T (ThT). 100 μL of 2× reaction buffer and 80 μL of H2O are added to each well in black, clear-bottomed 96-well plate. Inhibitor peptides are dissolved in H2O to appropriate concentrations to produce 6-points dose response curves. 10 μL of dissolved peptide or H2O (control) is added to each reaction well. 10 μL of 1 mM Nat1 peptide is added to each reaction well (a final concentration of 50 μM). ThT fluorescence is monitored at room temperature every minute for 2 hours with excitation and emission wavelengths of 440 and 485 nm, respectively. IC50 values are calculated using Graphpad Prism.

[2] = biological target: p73 [RPILIIITLE—SEQ ID NO: 227] (Homo sapiens, UniProt O15350); assay: Thioflavin T aggregation assay, p73 amyloidogenic region; assay type: biochemical; parameters: dose or concentration left out as unconfirmed; conditions: inhibitors added in solution; FIG. 2(b)
Source text: (§2) FIGS. 1(a) and 1(b) show the aggregation of p63 and p73 amyloidogenic regions, respectively. The aggregation of the p63 and p73 sequences are monitored via Thioflavin T assay: an increase in Thioflavin T fluorescence is detected over time due to the formation of increasing amounts of amyloid to which the dye can specifically bind.
(§3) FIGS. 2(a) and 2(b) show the in vitro inhibition of p63 and p73 aggregation by several inhibitors. The aggregation is monitored via Thioflavin T assay. […] The baseline of no inhibitor is the line with squares.
as §1, with “An” for “The peptides of the invention were tested in an in vitro Thiofiavin T aggregation assay [see WO2014/182961]. An”, “Solution, Nat1” for “Solution, Nat”, “curves. […]” for “curves. 10 μL of dissolved peptide or H2O (control) is added to each reaction well. 10 μL of 1 mM Nat1 peptide is added to each reaction well (a final concentration of 50 μM).”, “respectively. […]” for “respectively. IC50 values are calculated using Graphpad Prism.”

[3] = biological target: p63 [RPILIIVTLE—SEQ ID NO: 226] (Homo sapiens, UniProt Q9H3D4); assay: Thioflavin T aggregation assay, p63 amyloidogenic region; assay type: biochemical; parameters: dose or concentration left out as unconfirmed; conditions: inhibitors added in solution; FIG. 2(a)
Source text: as §2, §3
The peptides are tested for p63 binding and p73 binding in an in vitro Thiofiavin T aggregation assay. […] The addition of the 50 μM solutions of p63 and p73 peptides to the reaction Buffer described in Example 3, forms amyloid (FIG. 1(a) and FIG. 1(b)). An increase in Thioflavin T fluorescence is detected over time due to the formation of increasing amounts of amyloid to which the dye can specifically bind. […] For the Nat1 Stock Solution, Nat1 (LTIITLE (SEQ ID NO: 225), >95% Pure, TFA salt) is dissolved at 8 mM in 25 mM NaOH solution and kept at −80° C. Prior to the assay, it is diluted to 1 mM in H2O. […] ThT fluorescence is monitored at room temperature every minute for 2 hours with excitation and emission wavelengths of 440 and 485 nm, respectively. […]

[4] = Protein binding in human serum; assay type: in vitro ADME; conditions: CPP linked peptides
[5] = tested on: OVCAR3; assay type: cell-based; conditions: 24 h
Description: (§4) To render the inhibitors cell permeable, the peptides are fused to either a nine-residue poly L-Arg tag or a nine-residue poly D-Arg tag, through one of several three-residue linkers, either L-RPI, D-RPI, or D-GGG. Cancer cell lines, e.g. OVCAR-3, and Detroit 562 are treated with the peptide conjugates for 24 hours by the following method. OVCAR3 and Detroit-562 cells are grown in ATCC recommended growth media. The peptides were made in a 4 mM stock. Cells are plated in 96-well flat bottom clear plates at 7000 cells/well. After 24 hours, compounds are serially diluted in one-third [starting at 33 μM] or one-half [starting at 30 μM] dilutions in PrEGM media (Lonza). Growth media was removed from the wells and compound in PrEGM was added to 100 ul final volume. 24 hours post-compound addition cell metabolism was measured by addition of 20 μl MTS solution (Promega, cell-titer 96 aqueous). Absorbance was read at 490 nm following a 2 hour incubation and data was processed in Prism Graphpad to generate EC50 values.

[6] = tested on: Detroit-562; assay type: cell-based; conditions: 24 h
Description: as §4

[7] = Stability in human serum; assay type: in vitro ADME; conditions: CPP linked peptides, read-out: Stability in Human Serum (t1/2)

Molecule: CC[C@H](C)[C@@H](C(=O)N[C@@H](CCCCN)C(=O)N[C@@H](Cc1ccc(O)cc1)C(=O)N[C@@H](Cc1c[nH]cn1)C(=O)N[C@@H](CCCNC(=N)N)C(=O)O)N(C)C(=O)[C@H](CCCNC(=N)N)NC(=O)[C@@H](N)CC(C)C [LR(N-Me)IKYHR] (H-LR[NMeI]KYHR-OH; N-terminus and C-terminus assumed)
- IC50 [1]: 0.334 µM

Molecule: N=C(N)NCCC[C@@H](N)C(=O)N[C@H](Cc1ccccc1)C(=O)N[C@H](Cc1ccc(O)cc1)C(=O)N[C@H](Cc1ccc(O)cc1)C(=O)N[C@H](Cc1c[nH]cn1)C(=O)N[C@H](CCCNC(=N)N)C(=O)N[C@H](CCCNC(=N)N)C(=O)O [rfyyhrr] (H-[dR][dF][dY][dY][dH][dR][dR]-OH; N-terminus and C-terminus assumed)
- in vitro inhibition of p73 aggregation [2]: delay the aggregation onset and lower the total amount of aggregates present
- in vitro inhibition of p63 aggregation [3]: delay the aggregation onset and lower the total amount of aggregates present

Molecule: CC[C@@H](C)[C@@H](NC(=O)[C@H]1CCCN1C(=O)[C@@H](CCCNC(=N)N)NC(=O)[C@@H](CCCNC(=N)N)NC(=O)[C@@H](CCCNC(=N)N)NC(=O)[C@@H](CCCNC(=N)N)NC(=O)[C@@H](CCCNC(=N)N)NC(=O)[C@@H](CCCNC(=N)N)NC(=O)[C@@H](CCCNC(=N)N)NC(=O)[C@@H](CCCNC(=N)N)NC(=O)[C@@H](CCCNC(=N)N)NC(=O)[C@H](N)CCCNC(=N)N)C(=O)N[C@H](CCCNC(=N)N)C(=O)N[C@@H](C(=O)N[C@H](Cc1c[nH]cn1)C(=O)N[C@H](Cc1ccc(O)cc1)C(=O)N[C@H](Cc1ccccc1)C(=O)N[C@H](CCCNC(=N)N)C(=O)N[C@H](CCCNC(=N)N)C(=O)O)[C@H](C)CC [rrrrrrrrrrpirihyfrr] (H-[dR][dR][dR][dR][dR][dR][dR][dR][dR][dR][dP][dI][dR][dI][dH][dY][dF][dR][dR]-OH; N-terminus and C-terminus assumed)
- fraction unbound [4]: 0.07
- EC50 [5]: 4 µM
- EC50 [6]: 5 µM
- half-life ([7]; cells given in hr): > 24 h

Molecule: CC[C@@H](C)[C@@H](NC(=O)[C@H]1CCCN1C(=O)[C@@H](CCCNC(=N)N)NC(=O)[C@@H](CCCNC(=N)N)NC(=O)[C@@H](CCCNC(=N)N)NC(=O)[C@@H](CCCNC(=N)N)NC(=O)[C@@H](CCCNC(=N)N)NC(=O)[C@@H](CCCNC(=N)N)NC(=O)[C@@H](CCCNC(=N)N)NC(=O)[C@@H](CCCNC(=N)N)NC(=O)[C@@H](CCCNC(=N)N)NC(=O)[C@H](N)CCCNC(=N)N)C(=O)N[C@H](Cc1ccc(O)cc1)C(=O)N[C@H](CCC(N)=O)C(=O)N[C@H](Cc1c[nH]c2ccccc12)C(=O)N[C@H](Cc1ccc(O)cc1)C(=O)N[C@H](CCCNC(=N)N)C(=O)N[C@H](Cc1c[nH]c2ccccc12)C(=O)N[C@H](CCC(N)=O)C(=O)O [rrrrrrrrrrpiyqwyrwq] (H-[dR][dR][dR][dR][dR][dR][dR][dR][dR][dR][dP][dI][dY][dQ][dW][dY][dR][dW][dQ]-OH)
- fraction unbound [4]: 0.01
- EC50 [5]: 6 µM
- EC50 [6]: 5 µM
- half-life ([7]; cells given in hr): > 24 h

Molecule: Ac-IRIRRYR-NH2 [Ac-IRIRRYR-NH2]
- IC50 [1]: 0.069 µM

Molecule: LLIKYHR [LLIKYHR]
- in vitro inhibition of p73 aggregation [2]: delay the aggregation onset and lower the total amount of aggregates present
- in vitro inhibition of p63 aggregation [3]: delay the aggregation onset and lower the total amount of aggregates present

Molecule: PRRRRRRRRRRPIIRIRHYRP
- fraction unbound [4]: 0.11
- EC50 [5]: 10 µM
- EC50 [6]: 12 µM
- half-life [7]: 1.93 h

Molecule: PRRRRRRRRRRPILRIRYWKP
- fraction unbound [4]: 0.02
- EC50 [5]: 5 µM
- EC50 [6]: 5 µM
- half-life [7]: 3.33 h

Molecule: PRRRRRRRRRRPITRIRFYRP
- fraction unbound [4]: 0.11
- EC50 [5]: 8 µM
- EC50 [6]: 9 µM
- half-life [7]: 1.72 h

Molecule: RRRRRRRRRRPIIRIRHYP [RRRRRRRRRRPIIRIRHYP]
- fraction unbound [4]: 0.17
- EC50 [5]: 6 µM
- EC50 [6]: 7 µM
- half-life [7]: 4.92 h

Molecule: RRRRRRRRRRPIIRIRHYR [RRRRRRRRRRPIIRIRHYR]
- fraction unbound [4]: 0.16
- EC50 [5]: 6 µM
- EC50 [6]: 6 µM
- half-life [7]: 0.5 h

Molecule: RRRRRRRRRRPIIRIRHYRP
- fraction unbound [4]: 0.19
- EC50 [5]: 7 µM
- EC50 [6]: 7 µM
- half-life [7]: 2.07 h

Molecule: RRRRRRRRRRPILTRITLE [RRRRRRRRRRPILTRITLE, reference compound]
- fraction unbound [4]: 0.34
- EC50 [5]: 8 µM
- EC50 [6]: 9 µM
- half-life [7]: 5.65 h
